In ChEMBL document CHEMBL1201862, “PubChem BioAssay data set” (2004):
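Grown in 96-well plates, cells were treated for 48 hours with each compound at five concentrations. Insufficient inhibition: endpoint recorded as highest concentration tested. The concentration for 50% growth inhibition is given as GI50.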 Activity calls are given as the source filed them. No stated cut-off is given here; in the data, active = GI50 up to about 1.1 µM and inactive = higher. Where a SMILES comes first, the peptide text is derived from it. [ ]: non-standard residue; d: D form. The star is where a group is joined. ξ: configuration not given here. NMeF = CN[CH](Cc1ccccc1)C(=O)O; ξNMe2Val = CC(C)C(C(=O)*)N(C)C; NMeV = CN[CH](C(=O)O)C(C)C; OtBu = CC(C)(C)O*

Columns and labels:
Test in all cases: NCI tumour cell line growth inhibition, 48 h
CAKI-1 = tested on: CAKI-1
SF-295 = tested on: SF-295
HT-29 = tested on: HT-29
SK-OV-3 = tested on: SK-OV-3
U-251 = tested on: U-251
HL-60 = tested on: HL-60
SN12C = tested on: SN12C
MOLT-4 = tested on: MOLT-4
UACC-62 = tested on: UACC-62
LOX IMVI = tested on: LOX IMVI
EKVX = tested on: EKVX
786-0 = tested on: 786-0
NCI-H460 = tested on: NCI-H460
TK-10 = tested on: TK-10
NCI-H226 = tested on: NCI-H226

| SMILES | GI50 (CAKI-1) | GI50 (SF-295) | GI50 (HT-29) | GI50 (SK-OV-3) | GI50 (U-251) | GI50 (HL-60) | GI50 (SN12C) | GI50 (MOLT-4) | GI50 (UACC-62) | GI50 (LOX IMVI) | GI50 (EKVX) | GI50 (786-0) | GI50 (NCI-H460) | GI50 (TK-10) | GI50 (NCI-H226) |
| --- | --- | --- | --- | --- | --- | --- | --- | --- | --- | --- | --- | --- | --- | --- | --- |
| CCc1cc(Cc2cc(Cl)c(NC(=O)C(=O)C3NC(=O)NC3=O)c(CC)c2)cc(Cl)c1NC(=O)C(=O)C1NC(=O)NC1=O (configuration not stated) | > 100 µM (inactive) | 51.4 µM (inactive) | 26.1 µM (inactive) | 33.9 µM (inactive) | 17.1 µM (inactive) | 35.2 µM (inactive) | 50.8 µM (inactive) | 66.5 µM (inactive) | 46.7 µM (inactive) | 31.8 µM (inactive) | > 100 µM (inactive) | 42.7 µM (inactive) | 36.1 µM (inactive) | > 100 µM (inactive) | > 100 µM (inactive) |
| CCC(Oc1ccc(OC)c2c1C(=O)CCC2)C(=O)O (configuration not stated) | – | > 100 µM (inactive) | > 100 µM (inactive) | > 100 µM (inactive) | > 100 µM (inactive) | > 100 µM (inactive) | > 100 µM (inactive) | > 100 µM (inactive) | > 100 µM (inactive) | > 100 µM (inactive) | > 100 µM (inactive) | > 100 µM (inactive) | > 100 µM (inactive) | > 100 µM (inactive) | > 100 µM (inactive) |
| O=Cc1ccccc1OCCOc1cc(OCCOc2ccccc2C=O)c(OCCOc2ccccc2C=O)cc1OCCOc1ccccc1C=O | > 70.6 µM (inactive) | – | > 100 µM (inactive) | > 82.4 µM (inactive) | 12.6 µM (inactive) | > 78.2 µM (inactive) | > 100 µM (inactive) | > 45.1 µM (inactive) | > 100 µM (inactive) | 36.5 µM (inactive) | 32.1 µM (inactive) | 24.2 µM (inactive) | > 67.9 µM (inactive) | 42.6 µM (inactive) | > 54.8 µM (inactive) |
| Oc1nnc(CNc2ccc(Cl)cc2Cl)c2ccccc12 | 24.1 µM (inactive) | 20.9 µM (inactive) | 31.8 µM (inactive) | 18.9 µM (inactive) | 18.2 µM (inactive) | 22.5 µM (inactive) | 34.3 µM (inactive) | 31.5 µM (inactive) | 27.5 µM (inactive) | 46.3 µM (inactive) | 36.2 µM (inactive) | 16.7 µM (inactive) | 24.6 µM (inactive) | 20.7 µM (inactive) | 36.1 µM (inactive) |
| Cc1nc(N)nc(CCC(=O)Nc2cccc(C(F)(F)F)c2)c1-c1ccc(Cl)cc1 | > 100 µM (inactive) | > 100 µM (inactive) | > 100 µM (inactive) | > 100 µM (inactive) | > 100 µM (inactive) | > 100 µM (inactive) | > 100 µM (inactive) | > 100 µM (inactive) | > 100 µM (inactive) | – | > 100 µM (inactive) | > 100 µM (inactive) | > 100 µM (inactive) | > 100 µM (inactive) | > 100 µM (inactive) |
| CC(=O)NC1=C(NCC(C)C)C(=O)c2ccccc2C1=O | 16.7 µM (inactive) | 37.9 µM (inactive) | 41 µM (inactive) | 78.2 µM (inactive) | 40.2 µM (inactive) | 2.76 µM (inactive) | 16.9 µM (inactive) | 29.4 µM (inactive) | 18 µM (inactive) | 15.5 µM (inactive) | 25 µM (inactive) | 14.6 µM (inactive) | 34.7 µM (inactive) | 20.7 µM (inactive) | 16 µM (inactive) |
| COc1ccc(/C=C/C(=O)C(C)C)cc1 | 44.8 µM (inactive) | 31.6 µM (inactive) | 29 µM (inactive) | 31 µM (inactive) | 34.1 µM (inactive) | 22.9 µM (inactive) | 54.3 µM (inactive) | 33.2 µM (inactive) | 45 µM (inactive) | 32.9 µM (inactive) | 45.3 µM (inactive) | 71.3 µM (inactive) | 26.8 µM (inactive) | 92 µM (inactive) | – |
| O=S1(=O)COc2ccccc2-c2ncncc21 | > 100 µM (inactive) | > 100 µM (inactive) | > 100 µM (inactive) | > 100 µM (inactive) | > 100 µM (inactive) | > 100 µM (inactive) | > 100 µM (inactive) | > 100 µM (inactive) | > 100 µM (inactive) | > 100 µM (inactive) | > 100 µM (inactive) | > 100 µM (inactive) | > 100 µM (inactive) | > 100 µM (inactive) | > 100 µM (inactive) |
| CC(C)N1CCC2(CC1)NNc1ncccc1-n1cccc12 | > 100 µM (inactive) | > 100 µM (inactive) | > 100 µM (inactive) | – | > 100 µM (inactive) | > 100 µM (inactive) | > 100 µM (inactive) | > 100 µM (inactive) | – | > 100 µM (inactive) | > 100 µM (inactive) | > 100 µM (inactive) | > 100 µM (inactive) | > 100 µM (inactive) | > 100 µM (inactive) |
| CC(C)C(C(=O)N(C)C(Cc1ccccc1)C(=O)N(C)C(C(=O)N(C)C(C(=O)N1CCCC1C(=O)OC(C)(C)C)C(C)C)C(C)C)N(C)C (configuration not stated) (ξNMe2Val-[NMeF][NMeV][NMeV]P-OtBu; configuration not given here) | – | 60.8 µM (inactive) | 40.4 µM (inactive) | – | > 10 µM (inactive) | 37.2 µM (inactive) | 50.1 µM (inactive) | 13.9 µM (inactive) | 51.9 µM (inactive) | 22.9 µM (inactive) | 64 µM (inactive) | 52.7 µM (inactive) | 43.2 µM (inactive) | > 100 µM (inactive) | > 100 µM (inactive) |
| Cc1ccc(S(=O)(=O)N2CCCCC2CCO)cc1 (configuration not stated) | > 100 µM (inactive) | > 100 µM (inactive) | > 100 µM (inactive) | > 100 µM (inactive) | > 100 µM (inactive) | > 100 µM (inactive) | > 100 µM (inactive) | > 100 µM (inactive) | > 100 µM (inactive) | – | > 100 µM (inactive) | > 100 µM (inactive) | > 100 µM (inactive) | > 100 µM (inactive) | > 100 µM (inactive) |
| COc1ccc(/C(Cl)=C(\c2ccc(OCCN(C)C)cc2)c2ccc(OC(=O)C(C)(C)C)cc2)cc1 | 14.7 µM (inactive) | 14.8 µM (inactive) | 3.85 µM (inactive) | 11.1 µM (inactive) | 13.6 µM (inactive) | 5.97 µM (inactive) | 13.4 µM (inactive) | 2.91 µM (inactive) | 14.8 µM (inactive) | 6.61 µM (inactive) | 13.7 µM (inactive) | 10.4 µM (inactive) | 10.3 µM (inactive) | 18.1 µM (inactive) | 12.9 µM (inactive) |
| CC[C@H]1CNC(=O)CC1CC(=O)OC (some centres not stated) | > 100 µM (inactive) | > 100 µM (inactive) | > 100 µM (inactive) | > 100 µM (inactive) | > 100 µM (inactive) | – | > 100 µM (inactive) | > 100 µM (inactive) | > 100 µM (inactive) | > 100 µM (inactive) | > 100 µM (inactive) | > 100 µM (inactive) | > 100 µM (inactive) | > 100 µM (inactive) | > 100 µM (inactive) |
| COC(=O)C12C3C4C1C1C2C3C41I (configuration not stated) | > 100 µM (inactive) | > 100 µM (inactive) | > 100 µM (inactive) | > 100 µM (inactive) | > 100 µM (inactive) | > 100 µM (inactive) | > 100 µM (inactive) | > 100 µM (inactive) | > 100 µM (inactive) | – | > 100 µM (inactive) | > 100 µM (inactive) | > 100 µM (inactive) | > 100 µM (inactive) | > 100 µM (inactive) |
| C[C@]12CC(C=O)C(=O)C(O)=C1CC[C@@H]1C2CC[C@@]2(C)C1CC[C@]2(C)O (some centres not stated) | – | 27.1 µM (inactive) | 4.66 µM (inactive) | 21.4 µM (inactive) | 20.4 µM (inactive) | 15.8 µM (inactive) | 21.2 µM (inactive) | 22.3 µM (inactive) | 13.8 µM (inactive) | 11.5 µM (inactive) | 31.8 µM (inactive) | 16.3 µM (inactive) | 30.3 µM (inactive) | 38.9 µM (inactive) | 18.6 µM (inactive) |
| CN(C)/C=N\c1ccn(CCO)c(=O)n1 | – | – | > 100 µM (inactive) | > 100 µM (inactive) | > 100 µM (inactive) | > 100 µM (inactive) | > 100 µM (inactive) | > 100 µM (inactive) | > 100 µM (inactive) | > 100 µM (inactive) | > 100 µM (inactive) | > 100 µM (inactive) | > 100 µM (inactive) | > 100 µM (inactive) | > 100 µM (inactive) |
| ClC1c2ccccc2C2(c3ccccc3)OOC1(c1ccccc1)O2 (configuration not stated) | 2.37 µM (inactive) | 2.62 µM (inactive) | 2 µM (inactive) | – | 1.9 µM (inactive) | 0.136 µM (active) | 1.48 µM (inactive) | 1.26 µM (inactive) | 1.87 µM (inactive) | 0.352 µM (active) | 2.18 µM (inactive) | 1.61 µM (inactive) | 1.64 µM (inactive) | 2.58 µM (inactive) | 2.32 µM (inactive) |
| O=c1c2ccccc2nc(-c2ccccc2)n1NCC1(O)OCC(O)C(O)C1O (configuration not stated) | 47.3 µM (inactive) | 49.2 µM (inactive) | > 100 µM (inactive) | > 100 µM (inactive) | 87.3 µM (inactive) | 33 µM (inactive) | > 100 µM (inactive) | 14 µM (inactive) | > 100 µM (inactive) | – | > 100 µM (inactive) | > 100 µM (inactive) | 30.1 µM (inactive) | > 100 µM (inactive) | > 100 µM (inactive) |
| C1CCC(N=C2N(C3CCCCC3)C(=NC3CCCCC3)N2C2CCCCC2)CC1 | – | > 100 µM (inactive) | > 100 µM (inactive) | > 100 µM (inactive) | > 100 µM (inactive) | > 100 µM (inactive) | > 100 µM (inactive) | > 100 µM (inactive) | > 100 µM (inactive) | > 100 µM (inactive) | > 100 µM (inactive) | > 100 µM (inactive) | > 100 µM (inactive) | > 100 µM (inactive) | – |
